Experiments:
root parasitic nematodes = details: root application; cited from earlier work
root defence pathways = details: foliar application; cited from earlier work
M. graminicola = assay: Infection experiment with JA/ET mutant and biosynthesis inhibitors, foliar spray; type: in vivo, Meloidogyne graminicola; details: inhibitor alone sprayed on wild-type (DIECA 100 μM, AoA 12.5 mM) vs wild-type/control plants; 12 days after inoculation
Experimental: (§1) M. graminicola originally isolated in the Philippines (Batangas) was cultured on susceptible rice plants. Second stage juveniles (J2s) were extracted using a sieve/tray extraction method and inoculation was done as described in Nahar et al., (2011). For susceptibility assays, at least two independent experiments were carried out, each time including eight plants per treatment. Twelve days after inoculation (dai), roots were stained using acid fuchsine (Nahar et al., 2011) to count galls and number of nematodes in the roots.
(§2) Reduced Ascorbic acid (AA, 20 mM), dehydroascorbic acid (DHA, 20 mM), ascorbate oxidase (AO, 20 U/ml), methyl jasmonate (MeJA, 100 μM), aminooxyacetic acid (AoA, 12.5 mM), diethyldithiocarbamic acid (DIECA, 100 μM) and ethephon (100 μM) were purchased from Sigma and dissolved in water (except MeJA that was first dissolved in a drop of ETOH) to attain the indicated concentration.
(§3) For foliar application, all chemicals were dissolved in water and 0.02% (v/v) of Tween20 as a surfactant was added prior to spraying on aerial portions of the rice plants. Control plants were sprayed with distilled water containing 0.02% Tween20. Eight plants per treatment were sprayed until run-off with 6.5 mL of solution (at 24 h prior to nematode inoculation, in cases where infected plants were used). The substrate was covered to avoid direct contact with the roots and/or nematodes.

rice seedlings = assay: Evaluation of seedling growth after drenching rice seedlings; type: in vivo, Oryza sativa cv. Nipponbare; details: 3-days old rice seedlings drenched with 1 mL (AA 20 mM, DHA 20 mM, AO 20 U/ml); 5 days after drenching; vs water control
Experimental: (§4) Rice—Seeds of wild-type rice Oryza sativa cv. Nipponbare were obtained from USDA (GSOR-100). Seeds were germinated on wet filter paper for 4-5 days at 30° C. and seedlings were then transferred to SAP-substrate (Sand mixed with Absorbent Polymer AquaPerla®, DCM, Belgium) and further grown at 28° C., under a light regime of (day/night) 12/12. Hoagland solution was given as a source of nutrients 3 times a week.
as §2
3-days old rice seedlings were drenched with 1 mL of AA (20 mM), AO (20 U/mL), DHA (20 mM) or water (H2O) as a negative control. Rice root length and dry root weight as well as the number of embryonic crown roots (ECR) were measured 5 days after drenching.

[1] = Ascorbate measurements in shoots and roots of foliar sprayed rice; type: in vivo, Oryza sativa cv. Nipponbare; details: 24 h after foliar application; vs control plants
Experimental: as §3
[…] In each assay, 100 mg of crushed material was used per sample, and at least 4 biological replicates were analyzed per treatment. Reduced and oxidized AA were measured according to the method described in Ueda et al., 2013. Absorbance was monitored using a microplate reader (TECAN—Infinite200pro).

[2] = system: root-knot nematode Meloidogyne graminicola; assay: Susceptibility assay on rice plants, soil drench; type: in vivo; details: soil drench 24 h prior to inoculation (AA 20 mM, DHA 20 mM, AO 20 U/mL); twelve days after inoculation; vs control
Experimental: as §1, §2
For soil application, 6.5 mL of each solution was drenched on the substrate, 24 h prior to nematode inoculation.

[3] = system: root-knot nematode M. graminicola; assay: Susceptibility assay on rice plants, foliar spray; type: in vivo, Meloidogyne graminicola; details: foliar spray 24 h prior to inoculation (AA 20 mM, DHA 20 mM, AO 20 U/ml); 12 dai; vs control
Experimental: as §1, §2, §3

Heterodera schachtii = assay: Sugar beet tolerance to beet cyst nematode infection after foliar spray; type: in vivo; details: three-weeks old sugar beet, foliar spray (AA 20 mM, AO 20 U/mL, DHA 20 mM), 250 H. schachtii per plant, 4 DAS (3 dai); for shoot height: DHA effect not statistically significant
Experimental: (§5) Sugar beet—seeds of cv. Amarok were germinated on moist tissue for 4-5 days at 25° C. For longer experiments seedlings were transplanted to polyvinyl-chloride (PVC) tubes containing fine soil particles. All experiments were conducted in a plant growth room at 25° C., with a 16/8 h day/night regime. The plants were fertilized by supplying Hoagland solution as a source of nutrients 3 times a week.
BNC cysts were obtained from Iran and were maintained on sugar beet (cv. Amarok) plants. Cysts were obtained from stock cultures, by washing the infected soil and letting the cysts to float in water. Full cysts with eggs were hand-picked and allowed to dry before setting up for hatching. For second-stage juveniles (J2) to hatch, cysts were placed in 3 mM of […] and transferred to an incubator/shaker at a temperature of 25.5° C. at 70 rpm for 4 days (Kammerhofer et al., 2015). J2 were re-suspended in water and counted under a stereomicroscope. Around 250-300 J2 nematodes were inoculated per plant. One day before and after inoculation, plants were not supplied with any nutrients or water. To investigate the plant tolerance to BCN infection root length, shoot height, fresh root weight as well as the number of cysts were measured at different time points after spraying and/or inoculation. For all experiments, 8 individual plants were used per treatment.
as §2, §3

[4] = system: root-knot nematode Meloidogyne graminicola; assay: Root growth in rice after foliar spray, nematode-infected conditions (tolerance); type: in vivo; details: 14-days old rice, foliar spray AO 20 U/mL, 250 nematodes per plant, time point not stated
Experimental: as §4, §1, §2, §3

sugar beet plants = assay: Root and shoot growth in uninfected sugar beet plants after foliar spray; type: in vivo, Beta vulgaris cv. Amarok; details: two-week old sugar beet, seven days later
Experimental: as §5, §2, §3

[5] = foliar spray, effect not statistically significant

CC(N)CC(=O)O (stereo not drawn) [BABA, β-aminobutyric acid]
rice plant defence, tolerance or resistance against root parasitic nematodes (root parasitic nematodes): enhances the rice plant defence system

Cc1ncc(C[n+]2csc(CCO)c2C)c(N)n1 [thiamine]
rice plant defence, tolerance or resistance against root parasitic nematodes (root parasitic nematodes): enhances the rice plant defence system

O=P(O)(O)CCCl [ethephon]
activation of root defence pathways (root defence pathways): can activate root defence pathways with varying efficacy

CCN(CC)C(=S)S [DIECA, diethyldithiocarbamic acid, reference compound]
number of galls (M. graminicola): significantly increased number of galls

NOCC(=O)O [AoA, aminooxyacetic acid, reference compound]
number of galls (M. graminicola): significantly higher number of galls

CC/C=C\CC1C(=O)CCC1CC(=O)OC (stereo not drawn) [MeJA, methyl jasmonate]
activation of root defence pathways (root defence pathways): can activate root defence pathways with varying efficacy

O=C1O[C@H]([C@@H](O)CO)C(O)=C1O [AA, ascorbic acid]
number of embryonic crown roots (ECR) (rice seedlings): significantly fewer ECR
root length (rice seedlings): slightly shorter roots
amount of reduced AA in roots [1]: no changes
amount of reduced AA in shoots [1]: significantly increased
number of galls [2]: significantly lower number of galls
number of nematodes [2]: lower number of nematodes
number of galls [3]: no significant differences
number of nematodes [3]: no significant differences
root length (Heterodera schachtii): None of the other treatments (AA or AO) had significant effects
root weight (Heterodera schachtii): None of the other treatments (AA or AO) had significant effects
shoot weight (Heterodera schachtii): None of the other treatments (AA or AO) had significant effects
shoot height (Heterodera schachtii): None of the other treatments (AA or AO) had significant effects

silicon
rice plant defence, tolerance or resistance against root parasitic nematodes (root parasitic nematodes): enhances the rice plant defence system

B1: AO: ascorbate oxidase, purchased from Sigma, used at 20 U/ml (protein, UniProt P37064 1-552, looked up)
L-ascorbate oxidase: SQIRHYKWEVEYMFWAPNCNENIVMGINGQFPGPTIRANAGDSVVVELTNKLHTEGVVIHWHGILQRGTPWADGTASISQCAINPGETFFYNFTVDNPGTFFYHGHLGMQRSAGLYGSLIVDPPQGKKEPFHYDGEINLLLSDWWHQSIHKQEVGLSSKPIRWIGEPQTILLNGRGQFDCSIAAKYDSNLEPCKLKGSESCAPYIFHVSPKKTYRIRIASTTALAALNFAIGNHQLLVVEADGNYVQPFYTSDIDIYSGESYSVLITTDQNPSENYWVSVGTRARHPNTPPGLTLLNYLPNSVSKLPTSPPPQTPAWDDFDRSKNFTYRITAAMGSPKPPVKFNRRIFLLNTQNVINGYVKWAINDVSLALPPTPYLGAMKYNLLHAFDQNPPPEVFPEDYDIDTPPTNEKTRIGNGVYQFKIGEVVDVILQNANMMKENLSETHPWHLHGHDFWVLGYGDGKFSAEEESSLNLKNPPLRNTVVIFPYGWTAIRFVADNPGVWAFHCHIEPHLHMGMGVVFAEGVEKVGRIPTKALACGGTAKSLINNPKNP
root length [4]: slightly increased root length
dry root weight (rice seedlings): some positive effects
number of embryonic crown roots (ECR) (rice seedlings): some positive effects
root length (rice seedlings): no root length effects
DHA level in roots [1]: accumulating
total levels of reduced and oxidized ascorbate in shoots [1]: slightly decreased
number of galls [2]: no significant difference
number of nematodes [2]: no significant difference
number of galls [3]: significantly lower number of galls
number of nematodes [3]: lower number of nematodes
root length (Heterodera schachtii): None of the other treatments (AA or AO) had significant effects
root weight (Heterodera schachtii): None of the other treatments (AA or AO) had significant effects
shoot weight (Heterodera schachtii): None of the other treatments (AA or AO) had significant effects
shoot height (Heterodera schachtii): None of the other treatments (AA or AO) had significant effects
root length (sugar beet plants; foliar spray (DHA 20 mM, AO 20 U/mL), vs water control): significantly longer roots
fresh root weight (sugar beet plants; [5]): positively affected
shoot length (sugar beet plants; [5]): positively affected

Source: US20230104477A1, “USE OF DEHYDROASCORBIC ACID AGAINST NEMATODE INFECTION IN PLANTS” (Universiteit Gent, priority 2019, published 2023)
